Entries after “also recorded” stand apart in the source; their conditions may differ.
What was measured:
[1] = tested on: T47D xenografts; assay: Growth of ER+ breast cancer cell line xenografts in NODscid mice; assay type: in vivo; conditions: 3-5 weeks, female NODscid mice
Procedure: Female NODscid mice of age 5-6 weeks received a subcutaneous estrogen pellet implant (1.7 mg). Twenty four hours after estrogen pellet implantation, the mice received tumor implantation by subcutaneous injection of T47D cells to the flank (approximately 2.5×10^6 cells/mouse). The mice were ear-notched for identification and housed 4 animals per cage. […] Tumors were measured 3 times weekly using digital calipers. Body weight was measured twice weekly. Clinical observations were conducted weekly.

[2] = tested on: T47D (ER+ cell line); assay: RT-CES cell proliferation assay, T47D; assay type: cell-based, human
Procedure: (§1) Unless otherwise indicated, cell proliferation assays described in Examples 2-5 were performed using a Real-Time Cell Electronic Sensing (RT-CES™ 96X) instrument from ACEA Bioscience (San Diego, Calif.). This instrument utilizes an electronic readout (impedance) to non-invasively quantify adherent cell proliferation and viability in real time.
(§2) Cells were seeded in 96-well microtiter plates containing microelectronic sensor arrays (96E plates; ACEA). Cells were maintained in RPMI 1640 (Invitrogen, Carlsbad, Calif.) supplemented with 10% fetal bovine serum (FBS) (Hyclone, Logan, Utah) and were cultured at 37° C. in a humidified atmosphere containing 5% CO2. For proliferation assays, cells were seeded (20,000 cells/well), allowed to attach and grown overnight in standard growth medium. Cells were then serum-starved for 8 hours prior to the proliferation assay in presence or absence of test compound(s). The proliferation response was continuously monitored by measuring the impedance change in each well for the indicated number of hours. Data are expressed as cell index (CI) change relative to time in culture, reflecting measured changes in electrical impedance. Each value shown is an average of 6 wells.
(§3) T47D (American Type Culture Collection, Manassas, Va. (ATCC) cat. HTB-133) is an ER+ cell line derived from human mammary gland ductal carcinoma Other ER+ cell lines used in studies reported herein include ZR-75 and HCC70. HCC1143 (ATCC cat. CRL-2321) is an ER− cell line also derived from human mammary gland ductal carcinoma.
(§4) Following the 8 hour starvation phase, either Ang II (Sigma-Aldrich), 500 nM, or vehicle control was added to the cell culture. […] Ang II also stimulated proliferation of ER+ cell lines HCC70, by approximately 30%, and ZR-75, by approximately 35%, relative to vehicle control (data not shown).

[3] = tested on: invasive breast cancer; conditions: administered for 5 years; women having risk factors; cited from earlier work
[4] = tested on: HCC1143 (ER− cell line); assay: RT-CES cell proliferation assay, HCC1143; assay type: cell-based, human
Procedure: as §1, §2, §3, §4

[5] = tested on: HCC70; assay: RT-CES cell proliferation assay, HCC70; assay type: cell-based, human
Procedure: as §1
as §2, with “wells. […]” for “wells.”

[6] = tested on: ZR-75; assay: RT-CES cell proliferation assay, ZR-75; assay type: cell-based, human
Procedure: as §1
as §2, with “wells. […]” for “wells.”

[7] = tested on: HCC1395; assay: RT-CES cell proliferation assay, HCC1395; assay type: cell-based, human
Procedure: as §1
as §2, with “wells. […]” for “wells.”

[8] = tested on: HCC1954; assay: RT-CES cell proliferation assay, HCC1954; assay type: cell-based, human
Procedure: as §1
as §2, with “wells. […]” for “wells.”

[9] = tested on: HCC1937; assay: RT-CES cell proliferation assay, HCC1937; assay type: cell-based, human
Procedure: as §1
as §2, with “wells. […]” for “wells.”

[10] = tested on: HCC38; assay: RT-CES cell proliferation assay, HCC38; assay type: cell-based, human
Procedure: as §1
as §2, with “wells. […]” for “wells.”

[11] = tested on: cells cultured from invasive ductal carcinomas; conditions: cells positive for ER and PR, cited from earlier work
[12] = tested on: T47D; conditions: cited from earlier work
[13] = tested on: MCF-7; conditions: cited from earlier work
[14] = tested on: T47D (ER+, PR+); conditions: T47D cells; cited from earlier work

## CCOc1nc2cccc(C(=O)OC(C)OC(=O)OC3CCCCC3)c2n1Cc1ccc(-c2ccccc2-c2nnn[nH]2)cc1 (stereo not shown) [candesartan cilexetil]
[1]; candesartan cilexetil 10, 30, 100 mg/kg p.o. once daily
  growth in tumor volume: reduced in a dose-dependent fashion

## CC/C(=C(\c1ccccc1)c1ccc(OCCN(C)C)cc1)c1ccccc1 [tamoxifen]
[2]; T47D, tamoxifen 7.5 μM + Ang II 500 nM
  effect on Ang II-induced cell proliferation: reduced cell proliferation to a level lower than that of vehicle control
[1]; tamoxifen 0.1, 0.3, 1.0 mg/kg p.o. once daily
  growth in tumor volume: reduced in a dose-dependent fashion
[3]
  reduction of incidence of invasive breast cancer: ~50%

## Ang II: peptide angiotensin II, a major regulator of blood pressure and cardiovascular homeostasis; from Sigma-Aldrich (DRVYIHPF; Angiotensin-2; UniProt P01019 25-32, looked up)
[2]; T47D
  Ang II proliferation response: positive
[2]; T47D (ER+), Ang II 500 nM vs vehicle control, after 8 h serum starvation
  effect of Ang II on growth / cell proliferation: significantly stimulated growth; also recorded: substantial increase in cell proliferation
[4]; HCC1143
  Ang II proliferation response: negative
[4]; HCC1143 (ER−), Ang II 500 nM vs vehicle control
  effect of Ang II on growth / cell proliferation: No effects
[5]; HCC70
  Ang II proliferation response: positive
[5]; HCC70 (ER+), Ang II, data not shown
  stimulation of proliferation relative to vehicle control: approximately 30%
[6]; ZR-75
  Ang II proliferation response: positive
[6]; ZR-75 (ER+), Ang II, data not shown
  stimulation of proliferation relative to vehicle control: approximately 35%
[7]
  Ang II proliferation response: negative
[8]
  Ang II proliferation response: negative
[9]
  Ang II proliferation response: negative
[10]
  Ang II proliferation response: negative
[11]; Ang II
  proliferation of cultured cells: stimulated in a dose-dependent manner
[12]
  stimulation of cell growth by Ang II: significant stimulation of cell growth
[13]
  proliferative effect: dose-dependent proliferative effect

## CCCc1nc2c(C)cc(-c3nc4ccccc4n3C)cc2n1Cc1ccc(-c2ccccc2C(=O)O)cc1 [telmisartan]
[2]; T47D, telmisartan 1.25 μM or 5 μM + Ang II 500 nM
  inhibition of Ang II-induced growth: significantly inhibited Ang II-induced growth
[4]; HCC1143, telmisartan 1.25 μM or 5 μM + Ang II 500 nM
  effect on cell proliferation: No effects

## CCCCC1=NC2(CCCC2)C(=O)N1Cc1ccc(-c2ccccc2-c2nnn[nH]2)cc1 [irbesartan]
[2]; T47D, AT1 receptor antagonist 5 μM + Ang II 500 nM
  inhibition of Ang II-induced growth / cell proliferation: significantly inhibited Ang II-induced growth; also recorded: reversed the Ang II effect
[4]; HCC1143, AT1 receptor antagonist 5 μM + Ang II 500 nM, data not shown
  effect on cell proliferation: No effects
[1]; irbesartan 30, 100, 300 mg/kg p.o. once daily
  growth in tumor volume: lowest dose tested (30 mg/kg) appeared to give the greatest effect

## NCCCCC(NC(CCc1ccccc1)C(=O)O)C(=O)N1CCCC1C(=O)O.O.O (stereo not shown) [lisinopril, 1-(6-amino-2-(1-carboxy-3-phenyl-propyl)aminohexanoyl)pyrrolidine-2-carboxylic acid dihydrate]
[14]
  ER protein concentration: No such effects
  PR protein concentration: No such effects
  [3H]thymidine incorporation (an index of cell proliferation): No such effects

## CCCCc1nc(Cl)c(CO)n1Cc1ccc(-c2ccccc2-c2nn[nH]n2)cc1 [losartan]
[11]
  effect on Ang II-stimulated proliferation: blocked

## C[C@H](CS)C(=O)N1CCC[C@H]1C(=O)O [Captopril, (2S)-1-((2S)-2-methyl-3-sulfanylpropanoyl)pyrrolidine-2-carboxylic acid]
[14]
  ER protein concentration: reduced ER
  PR protein concentration: increased PR
  [3H]thymidine incorporation (an index of cell proliferation): inhibited [3H]thymidine incorporation

From US20100029734A1, “METHODS FOR BREAST CANCER SCREENING AND TREATMENT” (Ore Pharmaceuticals Inc., priority 2008, published 2010)
